From US4833162A, “Substituted benzeneacetonitriles and their use as calcium channel blockers” (American Cyanamid Company, priority 1988, dated 1989)
Counter-ions that a name gives are not always drawn.

What was measured:
[1] = tested on: thoracic aortae rings (potassium chloride-induced contraction); experiment: Calcium antagonist Test 1: inhibition of potassium chloride-induced contraction of rat thoracic aortic rings; type: cell-based, Sprague-Dawley rat; conditions: 50 mM potassium chloride, 37° C., active if >50% inhibition at 3×10^-5 M, read-out: bath concentration at which more than 50% of the potassium chloride-induced contraction was inhibited
Method: Male Sprague-Dawley rats, weighing 300-470 g, were killed and their thoracic aortae were removed immediately, cleared of blood, fat and connective tissue and cut into rings 1-2 mm wide. […] The bath media was maintained at 37° C. and aerated with 5% carbon dioxide in oxygen.
At the start of the test, the aortic rings were stretched to an initial tension of one gram. The tissues were then allowed to equilibrate for 90 minutes until they reached a steady tension. Changes in tension were recorded using a force displacement transducer coupled to a Grass polygraph.
The potassium chloride-induced contractions were repeated until a constant tension was obtained. These initial contractions served as a control for subsequent contractions induced in the presence of a test compound.
Each compound was dissolved in ethanol to a stock concentration of 10^-2 M. The ability of these compounds to inhibit a potassium chloride-induced contraction was determined by comparing the tension developed in the presence of each compound versus the control.

rat = experiment: Test 2: antihypertensive activity in the rat (MABP and heart rate); type: in vivo; conditions: for antihypertensive activity (comparison in words): Verapamil 50 mg/kg versus 1-methylethyl substituted thio compound 100 mg/kg; for heart rate (HR) / mean arterial blood pressure (MABP): average two rats
Method: Antihypertensive activity was measured in the rat by the mean arterial blood pressure (MABP) in millimeters of mercury and heart rate (HR) in beats per minute (average two rats).

renal hypertensive dogs = experiment: Test 3: antihypertensive activity in renal hypertensive dogs; type: in vivo, dog
Method: Antihypertensive activity was also measured in renal hypertensive dogs.

| IC50 [1] [µM] | SMILES | antihypertensive activity (comparison in words) (rat) | heart rate (HR) (rat; dose of 100 mg/kg) [beats per minute] | mean arterial blood pressure (MABP) (rat; dose of 100 mg/kg) | increase in HR to (renal hypertensive dogs; dose of 20 mg/kg) | drop in blood pressure (renal hypertensive dogs; dose of 20 mg/kg, over a two hour period) [millimeter] | heart rate (HR) (rat; dose of 50 mg/kg) [beats per minute] | mean arterial blood pressure (MABP) (rat; dose of 50 mg/kg) | increase in HR of (renal hypertensive dogs; dose of 10 mg/kg) | drop in blood pressure (renal hypertensive dogs; dose of 10 mg/kg, over a four hour period) |
| --- | --- | --- | --- | --- | --- | --- | --- | --- | --- | --- |
| 0.8 | COc1ccc(CCN(C)CCSC(C#N)(c2ccc(OC)c(OC)c2)C(C)C)cc1OC (stereo not drawn) [1-methylethyl substituted thio compound, A-[[2-[[2-(3,4dimethoxyphenyl)ethyl]methylamino]ethyl]thio]-3,4-dimethoxy-A-(1-methylethyl) benzeneacetonitrile monohydrochloride] | comparable antihypertensive activity | 320 | 97 millimeters of mercury | above 153 | 45 |  |  |  |  |
|  | COc1ccc(CCN(C)CCCC(C#N)(c2ccc(OC)c(OC)c2)C(C)C)cc1OC (stereo not drawn) [Verapamil, A-[3-[[2-(3,4-dimethoxyphenyl)ethyl]methylamino]propyl]-3,4-dimethoxy-A-(1-methylethyl) benzeneacetonitrile, reference compound] | comparable antihypertensive activity |  |  |  |  | 350 | 93 millimeters of mercury | 75 | 30 millimeters of mercury |
| 3 | COc1ccc(CCN(C)CCSC(C#N)c2ccc(OC)c(OC)c2)cc1OC (stereo not drawn) [unsubstituted thio compound, A-[[2-[[2(3,4-dimethoxyphenyl)ethyl]methylamino]ethyl]thio]-3,4-dimethoxy-A-benzeneacetonitrile monohydrochloride] |  |  |  |  |  |  |  |  |  |
